Experimental data published in patent US20220183997A1, “USE OF C[…] COMBINATION WITH ANTIBIOTICS” (GW Pharma Limited, priority 2019, published 2022).

What was measured:
Assay type in all cases: cell-based
[1] = test system: E. coli; experiment: Disc diffusion test, antibiotic discs with CBD disc; conditions: antibiotic disc + 5 μM CBD disc vs antibiotic alone, 24 h
Description: (§1) Discs were impregnated with the following […]: Colistin (10 μg/ml), Rifampicin (15 μg/ml), Erythromycin (15 μg/ml), Kanamycin (30 μg/ml) and Vancomycin (5 μg/ml).
(§2) Concentration of the antibiotics used was based on previously published and established MIC values (Moskowitz et al., 2010; Rojas et al., 2017; Goldstein et al., 2018; Maclayton et al., 2006, Kshetry et al., 2016).
(§3) E. coli and S. aureus agar plates were prepared for the disc diffusion test by soaking a sterile paper disc in 5 μM CBD and placing it in the middle of the agar plate, while the impregnated antibiotic discs were placed equidistant to the CBD disc. Zone of inhibition was assessed after 24 h.

[2] = test system: S. aureus; experiment: as above; conditions: antibiotic disc + 5 μM CBD disc vs antibiotic alone, 24 h
Description: as §1, §2, §3

[3] = test system: S. aureus; experiment: CBD-mediated membrane vesicle inhibition, release quantified by nanoparticle tracking analysis; conditions: CBD 1 or 5 μM, 1 h
Description: (§4) E. coli and S. aureus cultures were maintained by plating on Mueller-Hinton agar plates and weekly sub-culturing was performed according to previously established methods (Iqbal et. al. 2013).
(§5) Before OMV isolation, all bacterial growth medium was pre-treated before use by ultracentrifugation at 75,000 g for 24 h, to ensure minimum contamination with extracellular vesicles (EVs) from the medium.
(§6) For OMV isolation, bacteria were grown in EV-free medium (as described above) for 24 h at 37° C. and 5% CO2, the culture medium collected and centrifuged once at 400 g for 10 min for removal of cells, followed by centrifugation at 4000 g for 1 h at 4° C. to remove cell debris. […]
(§7) Samples were diluted 1:50 in sterile-filtered EV-free DPBS and the number of particles in the field of view was maintained in the range of 20-40 with a minimum concentration of samples at 5×10^7 particles/ml. Camera settings were according to the manufacturer's instructions (Malvern), five 30 sec videos per sample were recorded and replicate histograms averaged. […]
(§8) The experiment was repeated three times and the OMVs were quantified using NTA analysis. Cell viability was assessed after 1 h treatment with CBD compared to controls and before the start of every experiment using viable count.

[4] = test system: E. coli; experiment: CBD-mediated OMV inhibition, OMV release quantified by nanoparticle tracking analysis; conditions: 1 h, vs control
Description: as §4, §5, §6, §7, §8

Molecule: CN[C@H](CC(C)C)C(=O)N[C@H]1C(=O)N[C@@H](CC(N)=O)C(=O)N[C@H]2C(=O)N[C@H]3C(=O)N[C@H](C(=O)N[C@H](C(=O)O)c4cc(O)cc(O)c4-c4cc3ccc4O)[C@H](O)c3ccc(c(Cl)c3)Oc3cc2cc(c3O[C@@H]2O[C@H](CO)[C@@H](O)[C@H](O)[C@H]2O[C@H]2C[C@](C)(N)[C@H](O)[C@H](C)O2)Oc2ccc(cc2Cl)[C@H]1O [Vancomycin]
- sensitisation to antibiotic by CBD (in words) [1]: did not increase antibacterial effects

Molecule: CO[C@H]1/C=C/O[C@@]2(C)Oc3c(C)c(O)c4c(O)c(c(/C=N/N5CCN(C)CC5)c(O)c4c3C2=O)NC(=O)/C(C)=C\C=C\[C@H](C)[C@H](O)[C@@H](C)[C@@H](O)[C@@H](C)[C@H](OC(C)=O)[C@@H]1C [Rifampicin]
- increase of antibacterial effect (radius of zone of inhibition) when combined with CBD [1]: 50%

Molecule: CC[C@H]1OC(=O)[C@H](C)[C@@H](O[C@H]2C[C@@](C)(OC)[C@@H](O)[C@H](C)O2)[C@H](C)[C@@H](O[C@@H]2O[C@H](C)C[C@H](N(C)C)[C@H]2O)[C@](C)(O)C[C@@H](C)C(=O)[C@H](C)[C@@H](O)[C@]1(C)O [Erythromycin]
- increase of antibacterial effect (radius of zone of inhibition) when combined with CBD [1]: 35%
- effect of CBD on antibacterial activity of antibiotic (in words) [2]: reduced antibacterial effects

Molecule: NC[C@H]1O[C@H](O[C@H]2[C@H](O)[C@@H](O[C@H]3O[C@H](CO)[C@@H](O)[C@H](N)[C@H]3O)[C@H](N)C[C@@H]2N)[C@H](O)[C@@H](O)[C@@H]1O [Kanamycin]
- increase of antibacterial effect (radius of zone of inhibition) when combined with CBD [1]: 18%
- increase of antibiotic activity (radius of zone around diffusion disk) by CBD [2]: 30%

Molecule: Colistin [Colisitin]
- sensitisation to antibiotic by CBD (in words) [1]: not

Molecule: C=C(C)[C@@H]1CCC(C)=C[C@H]1c1c(O)cc(CCCCC)cc1O [CBD, Cannabidiol]
- effect on membrane vesicle release [3]: no effect
- reduction of total OMV release ([4]; 1 μM CBD): 73%
- reduction of total OMV release ([4]; 5 μM CBD): 54%
